ChEMBL document CHEMBL1147609, “Comparison of 2-phenylspiroindenes and 2-phenylspiroindenediones as estrogen receptor ligands--modeling and binding data don't agree!” (Bioorg Med Chem Lett, 2004)

Legend:
Estrogen receptor beta = Estrogen receptor beta (Homo sapiens, UniProt Q92731); assay: Binding affinity for estrogen receptor beta
Estrogen receptor = target: T1, Estrogen receptor (Homo sapiens, UniProt P03372); assay: Binding affinity for estrogen receptor alpha
T1 sequence (P03372 whole entry): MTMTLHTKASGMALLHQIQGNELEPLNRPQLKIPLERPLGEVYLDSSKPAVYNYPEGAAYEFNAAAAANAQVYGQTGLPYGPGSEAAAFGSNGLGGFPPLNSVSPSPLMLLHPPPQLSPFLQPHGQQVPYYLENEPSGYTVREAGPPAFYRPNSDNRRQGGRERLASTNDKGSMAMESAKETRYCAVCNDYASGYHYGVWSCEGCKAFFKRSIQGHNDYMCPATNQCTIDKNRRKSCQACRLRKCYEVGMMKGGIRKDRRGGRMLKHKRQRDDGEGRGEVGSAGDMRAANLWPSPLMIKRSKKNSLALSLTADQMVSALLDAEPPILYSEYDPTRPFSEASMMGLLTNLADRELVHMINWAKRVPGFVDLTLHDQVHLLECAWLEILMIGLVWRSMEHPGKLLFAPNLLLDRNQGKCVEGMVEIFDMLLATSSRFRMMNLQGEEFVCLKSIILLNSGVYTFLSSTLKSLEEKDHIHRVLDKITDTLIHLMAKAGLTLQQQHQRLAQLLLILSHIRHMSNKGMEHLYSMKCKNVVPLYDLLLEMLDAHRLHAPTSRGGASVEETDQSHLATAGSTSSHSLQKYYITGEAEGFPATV

Estrogen receptor beta, sequence (Q92731 whole entry): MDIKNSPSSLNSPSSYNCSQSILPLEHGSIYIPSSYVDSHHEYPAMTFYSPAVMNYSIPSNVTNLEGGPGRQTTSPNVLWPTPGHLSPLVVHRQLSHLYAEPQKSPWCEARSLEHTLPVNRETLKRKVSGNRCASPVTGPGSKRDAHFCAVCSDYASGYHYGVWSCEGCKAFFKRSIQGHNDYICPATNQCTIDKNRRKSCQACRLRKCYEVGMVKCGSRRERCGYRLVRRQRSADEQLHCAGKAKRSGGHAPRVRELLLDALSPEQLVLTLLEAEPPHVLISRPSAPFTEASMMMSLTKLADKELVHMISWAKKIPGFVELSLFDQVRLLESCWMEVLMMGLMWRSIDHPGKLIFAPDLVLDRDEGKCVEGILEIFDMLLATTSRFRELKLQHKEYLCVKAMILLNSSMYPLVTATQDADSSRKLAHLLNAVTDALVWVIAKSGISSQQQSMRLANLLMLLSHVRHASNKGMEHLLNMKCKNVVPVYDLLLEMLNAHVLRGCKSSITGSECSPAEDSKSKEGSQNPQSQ

Compound	IC50 (Estrogen receptor beta)	IC50 (Estrogen receptor)
O=C1c2ccccc2C(=O)C12C(c1ccc(O)cc1)=Cc1cc(O)ccc12	0.103 µM	0.091 µM
Oc1ccc(C2=Cc3cc(O)ccc3C23Cc2ccc(OCCN4CCCCC4)cc2C3)cc1 (centres undefined)	0.0018 µM	
O=C1c2ccc(OCCN3CCCCC3)cc2C(=O)C12C(c1ccc(O)cc1)=Cc1cc(O)ccc12 (centres undefined)	0.223 µM	0.172 µM

Second part, the molecule after the results:

IC50 (Estrogen receptor beta)	IC50 (Estrogen receptor)	Compound
0.028 µM	0.035 µM	Oc1cccc(C2=Cc3cc(O)ccc3C23Cc2ccccc2C3)c1
0.329 µM	0.366 µM	O=C1c2ccccc2C(=O)C12C(c1cccc(O)c1)=Cc1cc(O)ccc12
